Series [1] deals with CC(=O)N[C@H](Cc1c[nH]c2ccccc12)C(=O)O. The series is described as follows: Inhibition/kinetics test of purified mutant D-aminoacylase 3AD-0089. Particulars: other: 30° C., pH7.5, for N-acetyl-D-tryptophan, pH 7.5. Type of series: biochemical, Alcaligenes denitrificans subsp. xylosoxydans MI-4. The protocol: (§1) The enzyme reaction can be achieved by incubating 1.0 ml of a reaction solution containing 20 mM N-acetyl-D-tryptophan (Sigma), 50 mM Tris-hydrochloride buffer (pH 7.5), and an enzyme solution at 30° C. for 10 minutes. Then, the reaction is stopped by adding 0.5 ml of a stop solution containing TCA (comprising 0.11 M trichloroacetic acid, 0.22 M sodium acetate, and 0.33 M acetic acid). The amount of D-tryptophan produced can be determined by TNBS method (Biosci. Biotech. Biochem., 58, 24 (1994)).
(§2) For example, 0.25 ml of 100 mM Na2B4O7 is added to 0.25 ml of the stop solution, 10 μl of 110 mM TNBS (trinitrobenzenesulfonic acid) solution is added to the mixed solution, and immediately thereafter, the resulting mixture is stirred. After the mixture is allowed to stand for five minutes, 1 ml of 100 mM NaHPO4 containing 1.5 mM Na2SO3 is added to the mixture to stop the color reaction. Then, the absorbance of the solution is determined at 420 nm. One unit of the enzyme activity is defined as the amount of enzyme that catalyzes the production of 1 μmol of D-tryptophan at 30° C. for one minute.
(§3) The rate constants of the reaction with N-acetyl-D-tryptophan and N-acetyl-L-tryptophan that is catalyzed by the thus-purified wild-type derived from Alcaligenes denitrificans subsp. xylosoxydans MI-4 or mutant D-aminoacylases of the present invention, can be determined according to the methods described in “Lectures for Biochemical Experiments 21: Introduction to Experimental Approach to Enzyme Kinetics” and “Basic Experimental Methods for Proteins and Enzymes, 2nd Ed.” Michaelis constant is represented by Km; the maximal rate is Vmax; inhibition constant is Ki; the constant for reaction inhibition by excess substrate is Ks′.
(§4) The mutant D-aminoacylase 3AD-0089 was purified from an E. coli transformant having the plasmid pSL-AD10 that contains DNA encoding the mutant D-aminoacylase 3AD-0089 by the same method as described in Example 19.
(§5) The D-aminoacylases purified in Examples 20 to 23 were tested for the inhibition by N-acetyl-D-tryptophan and N-acetyl-L-tryptophan. The reaction rate constants for N-acetyl-D-tryptophan and N-acetyl-L-tryptophan were determined according to the methods described in “Lectures for Biochemical Experiments 21: Introduction to Experimental Approach to Enzyme Kinetics” and “Basic Experimental Methods for Proteins and Enzymes, 2nd Ed.” Michaelis constant is represented by Km; the maximal rate is Vmax; inhibition constant is Ki; the constant for reaction inhibition by excess substrate is represented by Ks′. Km and Vmax were determined from a Lineweaver-Burk reciprocal plot; Ki was determined from a second-order plot (Royer); and Ks′ was determined from a [S] −1/v plot.

Series [2] has the same test system. The experiment in a line: purified protein, by the assay type. Particulars: other: 30° C., pH7.5, for N-acetyl-D-tryptophan, pH 7.5.
Series [3] concerns the target T1, Alcaligenes denitrificans subsp. xylosoxydans MI-4 D-aminoacylase mutant A154-0043 (A154V of SEQ ID NO: 1) (Alcaligenes xylosoxydans xylosoxydans, UniProt P72349, A154V).
T1 construct: made in house; host or cells: E. coli
The series is described as follows: Inhibition/kinetics test of purified mutant D-aminoacylase A154-0043. Type of series: biochemical. Here is the method:
as §1, §2, §3
(§6) The mutant D-aminoacylase A154-0043 was purified from an E. coli transformant having the plasmid pSL-AD07 that contains DNA encoding the mutant D-aminoacylase A154-0043 by the same method as described in Example 19.
as §5

For series [4], the target named is T2, Alcaligenes denitrificans subsp. xylosoxydans MI-4 D-aminoacylase mutant M347-0133 (M347A of SEQ ID NO: 1) (Alcaligenes xylosoxydans xylosoxydans, UniProt P72349, M347A).
T2 construct: made in house; host or cells: E. coli
The series is described as follows: Inhibition/kinetics test of purified mutant D-aminoacylase M347-0133. The format is biochemical. The protocol:
as §1, §2, §3
(§7) The mutant D-aminoacylase M347-0133 was purified from an E. coli transformant having the plasmid pSL-AD08 that contains DNA encoding the mutant D-aminoacylase M347-0133 by the same method as described in Example 19.
as §5

Series [5] has as its target T3, Alcaligenes denitrificans subsp. xylosoxydans MI-4 D-aminoacylase mutant R374-0017 (R374F of SEQ ID NO: 1) (Alcaligenes xylosoxydans xylosoxydans, UniProt P72349, R374F).
T3 construct: made in house; host or cells: E. coli
The series is described as follows: Inhibition/kinetics test of purified mutant D-aminoacylase R374-0017. Type of series: biochemical. The protocol: as §1, §2, §3
(§8) The mutant D-aminoacylase R374-0017 was purified from an E. coli transformant having the plasmid pSL-AD09 that contains DNA encoding the mutant D-aminoacylase R374-0017 by the same method as described in Example 19.
as §5

Series [6] deals with T4, Alcaligenes denitrificans subsp. xylosoxydans MI-4 D-aminoacylase mutant 3AD-0089 (A154V/M347A/R374F of SEQ ID NO: 1) (Alcaligenes xylosoxydans xylosoxydans, UniProt P72349, A154V/M347A/R374F).
T4 construct: made in house; host or cells: E. coli
The experiment in a line: Inhibition/kinetics test of purified mutant D-aminoacylase 3AD-0089. The format is biochemical. Here is the method: as §1, §2, §3, §4, §5

Series [7] concerns Methylobacterium mesophilicum D-aminoacylase. To be noted: at concentrations as high as 100 g/l; cited from earlier work.
Series [8] relates to Nocardioides thermolilacinus D-aminoacylase. Particulars: at concentrations as high as 100 g/l; cited from earlier work.
For series [9], the target named is Alcaligenes denitrificans subsp. xylosoxydans MI-4 D-aminoacylase, wild-type, SEQ ID NO: 1 (Alcaligenes xylosoxydans xylosoxydans, UniProt P72349). The experiment in a line: Inhibition/kinetics test of purified wild-type D-aminoacylase.
Series [10] deals with CC(=O)N[C@H](Cc1c[nH]c2ccccc12)C(=O)O. The experiment in a line: Inhibition/kinetics test of purified mutant D-aminoacylase A154-0043. Particulars: other: 30° C., pH7.5, for N-acetyl-D-tryptophan, pH 7.5. The format is biochemical, Alcaligenes denitrificans subsp. xylosoxydans MI-4. The protocol: as §1, §2, §3, §6, §5
Series [11] has the same test system. The experiment in a line: Inhibition/kinetics test of purified mutant D-aminoacylase R374-0017. The format is biochemical, Alcaligenes denitrificans subsp. xylosoxydans MI-4. To be noted: other: 30° C., pH7.5, for N-acetyl-D-tryptophan, pH 7.5. Here is the method: as §1, §2, §3, §8, §5
For series [12] the test system is unchanged. The series is described as follows: Inhibition/kinetics test of purified mutant D-aminoacylase M347-0133. The format is biochemical, Alcaligenes denitrificans subsp. xylosoxydans MI-4. To be noted: other: 30° C., pH7.5, for N-acetyl-D-tryptophan, pH 7.5. Here is the method: as §1, §2, §3, §7, §5
The nature of series [13]: D-aminoacylase activity assay (20 mM N-acetyl-D-tryptophan, TNBS method). Type of series: biochemical. To be noted: cell extract of E. coli JM109 transformant. Here is the method: as §1, §2
Setting [14] is: 30° C., pH7.5, for N-acetyl-D-tryptophan.
The mark [15] stands for this setting: 30° C., pH7.5, substrate inhibition by N-acetyl-D-tryptophan.

T3 sequence (P72349 whole entry R374F): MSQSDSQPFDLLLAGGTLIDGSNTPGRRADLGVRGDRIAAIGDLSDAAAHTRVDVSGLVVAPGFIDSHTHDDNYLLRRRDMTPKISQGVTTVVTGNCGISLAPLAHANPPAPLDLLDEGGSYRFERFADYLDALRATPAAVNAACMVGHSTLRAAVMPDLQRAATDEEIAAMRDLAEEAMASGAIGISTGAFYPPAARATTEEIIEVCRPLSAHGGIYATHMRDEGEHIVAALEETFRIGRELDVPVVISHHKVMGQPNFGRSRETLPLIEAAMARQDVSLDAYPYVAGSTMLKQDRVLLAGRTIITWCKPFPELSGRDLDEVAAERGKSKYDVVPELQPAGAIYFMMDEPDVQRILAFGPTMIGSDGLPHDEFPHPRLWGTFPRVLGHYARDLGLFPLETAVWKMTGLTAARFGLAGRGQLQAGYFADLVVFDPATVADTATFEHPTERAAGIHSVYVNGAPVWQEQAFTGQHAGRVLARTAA
T1 sequence (P72349 whole entry A154V): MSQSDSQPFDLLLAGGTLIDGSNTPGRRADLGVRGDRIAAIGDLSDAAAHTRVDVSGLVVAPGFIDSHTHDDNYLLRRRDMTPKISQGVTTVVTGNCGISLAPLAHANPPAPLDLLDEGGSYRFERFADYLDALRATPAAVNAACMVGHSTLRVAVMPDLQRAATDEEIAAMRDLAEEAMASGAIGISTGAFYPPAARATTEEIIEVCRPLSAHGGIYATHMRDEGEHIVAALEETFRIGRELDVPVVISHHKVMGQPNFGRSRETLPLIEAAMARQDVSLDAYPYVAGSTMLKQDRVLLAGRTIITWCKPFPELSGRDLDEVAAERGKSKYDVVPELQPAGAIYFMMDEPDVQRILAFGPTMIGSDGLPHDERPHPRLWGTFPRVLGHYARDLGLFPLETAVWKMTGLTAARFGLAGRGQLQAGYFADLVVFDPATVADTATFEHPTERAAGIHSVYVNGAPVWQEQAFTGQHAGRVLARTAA
T4 sequence (P72349 whole entry A154V/M347A/R374F): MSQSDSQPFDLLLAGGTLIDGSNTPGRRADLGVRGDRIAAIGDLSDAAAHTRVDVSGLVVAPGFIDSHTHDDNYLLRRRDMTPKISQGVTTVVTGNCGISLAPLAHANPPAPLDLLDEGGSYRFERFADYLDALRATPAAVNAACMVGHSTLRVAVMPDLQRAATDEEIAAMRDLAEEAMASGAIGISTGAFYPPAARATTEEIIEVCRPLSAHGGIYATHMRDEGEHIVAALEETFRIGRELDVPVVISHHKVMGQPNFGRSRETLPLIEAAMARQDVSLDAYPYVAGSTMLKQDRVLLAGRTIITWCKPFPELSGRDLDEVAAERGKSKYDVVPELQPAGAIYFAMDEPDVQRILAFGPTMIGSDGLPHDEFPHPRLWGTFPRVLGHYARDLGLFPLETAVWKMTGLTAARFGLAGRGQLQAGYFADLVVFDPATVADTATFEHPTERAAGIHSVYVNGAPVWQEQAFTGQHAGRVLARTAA
T2 sequence (P72349 whole entry M347A): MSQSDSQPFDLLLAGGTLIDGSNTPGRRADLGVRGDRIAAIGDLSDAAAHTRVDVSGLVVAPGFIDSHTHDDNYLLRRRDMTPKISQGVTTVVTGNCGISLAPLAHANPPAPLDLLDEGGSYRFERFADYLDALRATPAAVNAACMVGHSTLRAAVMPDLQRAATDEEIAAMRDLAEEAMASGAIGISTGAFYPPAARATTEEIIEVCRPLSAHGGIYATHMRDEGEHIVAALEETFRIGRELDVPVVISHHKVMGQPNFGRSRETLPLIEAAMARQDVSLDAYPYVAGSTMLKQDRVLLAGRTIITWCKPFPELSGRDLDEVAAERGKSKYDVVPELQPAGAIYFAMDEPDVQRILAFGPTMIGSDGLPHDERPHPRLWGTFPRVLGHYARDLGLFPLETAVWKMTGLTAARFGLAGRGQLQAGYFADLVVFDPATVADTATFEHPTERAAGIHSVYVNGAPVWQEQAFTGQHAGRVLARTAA

With “Alcaligenes denitrificans subsp. xylosoxydans MI-4 D-aminoacylase mutant 3AD-0089 (A154V/M347A/R374F of SEQ ID NO: 1) (Achromobacter xylosoxidans; A154V/M347A/R374F)”, the Michaelis-Menten constant (Km) in [1] was 1460 µM.

Take “Alcaligenes denitrificans subsp. xylosoxydans MI-4 D-aminoacylase, wild-type, SEQ ID NO: 1 (Achromobacter xylosoxidans)”: the Michaelis-Menten constant (Km) in [2] was 2530 µM.

`CC(=O)N[C@H](Cc1c[nH]c2ccccc12)C(=O)O` [N-acetyl-D-tryptophan]: the “Vmax (Lineweaver-Burk reciprocal plot)” value in series [3] (setting [14]) was 1031; in [4] (setting [14]) it was 1000; in series [5] (setting [14]), 1000; in series [6] (setting [14]), 357; in series [9] (setting [14]), 685. The “Ks′ (constant for reaction inhibition by excess substrate; [S]−1/v plot)” value turned out to be 13.67 in series [3] (setting [15]), 77.00 in series [4] (setting [15]), 93.00 in series [5] (setting [15]) and 1.29 in series [9] (setting [15]). Also, the substrate inhibition entry in [6] (in the presence of 99 mM N-acetyl-D-tryptophan) is “not detectable”. Moreover, the “inhibition by the substrate” value in [7] and in [8] was “hardly inhibited” in each case.

In the case of “Alcaligenes denitrificans subsp. xylosoxydans MI-4 D-aminoacylase mutant A154-0043 (A154V of SEQ ID NO: 1) (Achromobacter xylosoxidans; A154V)”, in series [10], the Michaelis-Menten constant (Km) was 3440 µM.

With “Alcaligenes denitrificans subsp. xylosoxydans MI-4 D-aminoacylase mutant R374-0017 (R374F of SEQ ID NO: 1) (Achromobacter xylosoxidans; R374F)”, in [11], the Km is 1940 µM.

Consider “Alcaligenes denitrificans subsp. xylosoxydans MI-4 D-aminoacylase mutant M347-0133 (M347A of SEQ ID NO: 1) (Achromobacter xylosoxidans; M347A)”, for which the Michaelis constant (Km) in series [12] was 1420 µM.

On to `CC(=O)N[C@@H](Cc1c[nH]c2ccccc12)C(=O)O` [N-acetyl-L-tryptophan], for which the Ki amounted to 6.4 mM in series [3], 12.3 mM in series [4], 7.46 mM in series [5] and 2.6 mM in series [9]. Further, the competitive inhibition entry in series [6] (in the presence of 89 mM N-acetyl-L-tryptophan) is listed as “not detectable”.

B1: D-aminoacylase produced with the modified D-aminoacylase gene: wild-type amino acid sequence (SEQ ID NO: 1) expressed from codon-modified gene SEQ ID NO: 3 in plasmid pSL-ADD6 (protein)
chain: MSQSDSQPFDLLLAGGTLIDGSNTPGRRADLGVRGDRIAAIGDLSDAAAHTRVDVSGLVVAPGFIDSHTHDDNYLLRRRDMTPKISQGVTTVVTGNCGISLAPLAHANPPAPLDLLDEGGSYRFERFADYLDALRATPAAVNAACMVGHSTLRAAVMPDLQRAATDEEIAAMRDLAEEAMASGAIGISTGAFYPPAARATTEEIIEVCRPLSAHGGIYATHMRDEGEHIVAALEETFRIGRELDVPVVISHHKVMGQPNFGRSRETLPLIEAAMARQDVSLDAYPYVAGSTMLKQDRVLLAGRTIITWCKPFPELSGRDLDEVAAERGKSKYDVVPELQPAGAIYFMMDEPDVQRILAFGPTMIGSDGLPHDERPHPRLWGTFPRVLGHYARDLGLFPLETAVWKMTGLTAARFGLAGRGQLQAGYFADLVVFDPATVADTATFEHPTERAAGIHSVYVNGAPVWQEQAFTGQHAGRVLARTAA
modifications: Alcaligenes denitrificans subsp. xylosoxydans MI-4
With B1, the “D-aminoacylase activity of cell extract” value in series [13] is recorded as 86 U/mg.

Values taken from patent US7282356B2, “D-aminoacylase mutants” (Daicel Chemical Industries, Ltd., priority 2002, dated 2007).
